Measured values published in patent US10980900B2, “Imaging of meningiomas using phenylbenzothiazole, stilbene, or biphenylalkyne derivatives” (MAYO FOUNDATION FOR MEDICAL EDUCATION AND RESEARCH, priority 2010, dated 2021).
Entries after “also recorded” stand apart in the source; their conditions may differ.

Key:
[1] = test system: meningioma tissue sections; test: Fluorescent PiB / 6-CN-PiB staining of meningioma tissue sections; type: binding, human
From the text: (§1) The Department of Pathology, Mayo Clinic Rochester Tumor Tissue Registry, contains tumor samples procured by autopsy and surgery. Meningiomas, brain metastases and other tumors were identified by searching CoPath, a Mayo Clinic electronic pathology database of tumors collected since 1982. Tumor type was confirmed by viewing H&E stained slides under a light microscope.
Fresh cut 5 μm thick sections were used. Each staining run included normal brain and Alzheimer diseased brain as controls. Fluorescent tissue staining and microscopy was performed similar to methods previously described at Ikonomovic M D, Klunk W E, Abrahamson E E, et al., “Post-mortem correlates of in vivo PiB-PET amyloid imaging in a typical case of Alzheimer's disease”, Brain: A Journal Of Neurology 2008; 131:1630-45. Meningioma and other brain tumor sections were stained with 100 nM CN-PiB, 100 nM of unlabeled PiB or with saline alone as a negative control. The staining protocol was as follows: deparaffinization and rehydration, 0.25% KMnO4 incubation, water wash, 1% K2S2O5/1% Oxalic Acid incubation, water wash, PBS wash, 6-CN-PiB/PiB/saline incubation, PBS wash, NaCl, K2HPO4, and KH2PO4 incubation, water wash, mount coverslip, and storage at 4° C. in the dark until imaged. Slides were imaged within five days of staining.
Tissue stain images were obtained on a Zeiss 510 confocal microscope with excitation at 405 nm, a 420-480 bandpass filter, and the laser set at 15% power. Images were obtained with a C-Apochromat 40×/1.2 W lens.

[2] = test system: other intracranial tumors (schwannoma, metastasis) tissue sections; test: Fluorescent 6-CN-PiB staining of other intracranial tumor tissue sections; type: binding, human; details: some other tumors, different staining pattern
From the text: as §1
Fresh cut 5 μm thick sections were used. Each staining run included normal brain and Alzheimer diseased brain as controls. Fluorescent tissue staining and microscopy was performed similar to methods previously described at Ikonomovic M D, Klunk W E, Abrahamson E E, et al., “Post-mortem correlates of in vivo PiB-PET amyloid imaging in a typical case of Alzheimer's disease”, Brain: A Journal Of Neurology 2008; 131:1630-45. Meningioma and other brain tumor sections were stained with 100 nM CN-PiB, 100 nM of unlabeled PiB or with saline alone as a negative control. The staining protocol was as follows: deparaffinization and rehydration, 0.25% KMnO4 incubation, water wash, 1% K2S2O5/1% Oxalic Acid incubation, water wash, PBS wash, 6-CN-PiB/PiB/saline incubation, PBS wash, NaCl, K2HPO4, and KH2PO4 incubation, water wash, mount coverslip, and storage at 4° C. in the dark until imaged. Slides were imaged within five days of staining. […]

[3] = test system: non-meningioma tumors and lesions; test: PiB PET/CT imaging of non-meningioma tumors and lesions in patients; type: in vivo, human
From the text: (§2) An Alzheimer's imaging database of two hundred forty-one patients was reviewed. […] All patients had been imaged by at least one MRI, as well as by FDG-PET/CT and PET/CT using the compound of formula (V). MRI reports of all patients were reviewed for possible meningiomas and other tumors. […] The diagnostic confidence of the radiologists interpreting the studies varied slightly, depending on factors such as tumor location and previous imaging. […] Tumors smaller than 7 millimeters are generally considered too small to be evaluated by PET or PET/CT. This is an excepted limitation of PET or PET/CT as a modality. […] None of the meningiomas in the series would be classified as atypical or aggressive based on MRI or CT imaging. One presumed extracranial schwannoma was seen, showing mild uptake on FDG-PET/CT, but no uptake on PET/CT using the compound of formula (V).
(§3) The radiologic interpretations of MRI, CT and FDG PET/CT scans from a population of 834 people who participated in the population-based Mayo Clinic Study of Aging (MCSA) from March 2006 through September 2011 were reviewed for the presence of tumors or other brain lesions. (See, Kantarci K, Lowe V, Przybelski S A, et al., “Magnetic resonance spectroscopy, {beta}-amyloid load, and cognition in a population-based sample of cognitively normal older adults”, Neurology 2011; 77:951-8; and Roberts R O, Geda Y E, Knopman D S, et al., “The Mayo Clinic Study of Aging: design and sampling, participation, baseline measures and sample characteristics”, Neuroepidemiology 2008; 30:58-69.) Participants were randomly selected for recruitment in the MCSA from a population of older adult residents of Olmsted County, Minn., USA. Those with neurological, psychological or systemic illnesses were not excluded. Individuals with dementia, or those unable to be imaged for medical reasons were excluded. All patients were imaged with C11-PiB PET/CT, F18-FDG PET/CT and non-contrast MRI at least once as part of the study. Any additional patient imaging and clinical history was then reviewed.
Tumors found in any of the subjects were then categorized as possible meningiomas or non-meningiomas based on the reading of the reporting neuroradiologist. Possible meningiomas were further reviewed as a group. […]
PET imaging was performed as part of the Mayo Clinic Study of Aging as previously described. […] Cerebral PiB retention, a marker of amyloid deposition, was measured as previously described. […]

[4] = PiB PET/CT activity in normal tissues near the tumors; type: in vivo, human
From the text: as §3
PET imaging was performed as part of the Mayo Clinic Study of Aging as previously described. (See Kantarci K, Lowe V, Przybelski S A, et al., “Magnetic resonance spectroscopy, {beta}-amyloid load, and cognition in a population-based sample of cognitively normal older adults”, Neurology 2011; 77:951-8.) PiB PET/CT, then FDG PET/CT were performed on the same day. PET/CT imaging was performed on a 690XT or DRX PET/CT tomograph (GE Healthcare). The PET sinograms were reconstructed using a fully-3D OSEM algorithm into a 30 cm field of view; the pixel size was 1.2 mm and the slice thickness was 3.27 mm (DRX) or 1.96 mm (690XT). CT imaging was obtained immediately prior to PET acquisition and used for attenuation correction. Cerebral PiB retention, a marker of amyloid deposition, was measured as previously described. […]

meningiomas [5] = test: PiB PET/CT imaging of meningiomas in patients; type: in vivo, human
From the text: as §2, §3
Tumors found in any of the subjects were then categorized as possible meningiomas or non-meningiomas based on the reading of the reporting neuroradiologist. Possible meningiomas were further reviewed as a group. A more strict set of criteria were applied to select a subset of the possible meningiomas that were designated “high-likelihood meningiomas” for further analysis and were defined by (1) tumors that were confirmed to be enhancing on diagnostic MRI (obtained separately for clinical purposes) and (2) tumors that had greater than two years of follow-up imaging confirming no growth or slow growth (1-2 mm per year). When the lead diagnosis of the identified tumor was metastasis, the diagnosis was confirmed by biopsy or autopsy. All tumors smaller than 5 mm thick were excluded, given they fall below the generally accepted lower limits of PET/CT resolution.
PET imaging was performed as part of the Mayo Clinic Study of Aging as previously described. (See Kantarci K, Lowe V, Przybelski S A, et al., “Magnetic resonance spectroscopy, {beta}-amyloid load, and cognition in a population-based sample of cognitively normal older adults”, Neurology 2011; 77:951-8.) PiB PET/CT, then FDG PET/CT were performed on the same day. PET/CT imaging was performed on a 690XT or DRX PET/CT tomograph (GE Healthcare). The PET sinograms were reconstructed using a fully-3D OSEM algorithm into a 30 cm field of view; the pixel size was 1.2 mm and the slice thickness was 3.27 mm (DRX) or 1.96 mm (690XT). CT imaging was obtained immediately prior to PET acquisition and used for attenuation correction. Cerebral PiB retention, a marker of amyloid deposition, was measured as previously described. (See Kantarci K, Lowe V, Przybelski S A, et al. “Magnetic resonance spectroscopy, {beta}-amyloid load, and cognition in a population-based sample of cognitively normal older adults”, Neurology 2011; 77:951-8.) […]

non-meningioma tumors = test: FDG PET/CT imaging of non-meningioma tumors in patients; type: in vivo, human
From the text: (§4) An Alzheimer's imaging database of two hundred forty-one patients was reviewed. […] MRI reports of all patients were reviewed for possible meningiomas and other tumors. […] Tumors smaller than 7 millimeters are generally considered too small to be evaluated by PET or PET/CT.
as §3
(§5) PET imaging was performed as part of the Mayo Clinic Study of Aging as previously described. (See Kantarci K, Lowe V, Przybelski S A, et al., “Magnetic resonance spectroscopy, {beta}-amyloid load, and cognition in a population-based sample of cognitively normal older adults”, Neurology 2011; 77:951-8.) PiB PET/CT, then FDG PET/CT were performed on the same day. PET/CT imaging was performed on a 690XT or DRX PET/CT tomograph (GE Healthcare). […] Cerebral PiB retention, a marker of amyloid deposition, was measured as previously described. […]

meningiomas [6] = test: FDG PET/CT imaging of meningiomas in patients; type: in vivo, human
From the text: as §4, §3, §5

[7] = meningiomas 5 mm and thicker vs all other tumors in the 834 patient population

## CNc1ccc(-c2nc3ccc(C#N)cc3s2)cc1 [Formula 6-CN-PiB]
[1]; WHO grade I meningothelial meningioma (FIG. 6 Panel D), 100 nM
  fluorescent staining: positively; also recorded: intense fluorescence
[1]; all meningiomas (n=7) vs other intracranial tumors (n=6)
  staining brightness vs other intracranial tumors: qualitatively brighter
[2]
  6-CN-PiB binding: Moderate

## [11CH3]Nc1ccc(-c2nc3ccc(O)cc3s2)cc1 [Formula (V), [N-Methyl-^11C]2-(4′-methylaminophenyl)-6-hydroxybenzothiazole]
[3]; all other intracranial tumors imaged (metastases, pituitary macroadenomas, schwannomas, ependymoma)
  PiB activity relative to normal adjacent tissue: equal or less than normal adjacent tissue
[3]; both intracranial metastases (FIG. 4), pathologically confirmed
  result on PiB PET/CT: negative
[3]; melanoma metastasis case
  result on research PiB PET/CT: negative
[3]; non-tumorous lesions (strokes, arachnoid cysts, multiple sclerosis lesions)
  PiB activity: only trace
[1]; tissue sections from meningiomas, 100 nM unlabeled PiB
  staining of tissue sections: brightly positive
[4]; nearby normal bone
  average PiB activity, SUVmax: 0.6
[4]; nearby normal grey matter
  average PiB activity, SUVmax: 1.1
[4]; surrounding cerebrospinal fluid
  average background PiB activity, SUVmax: 0.2
Meningiomas [5]; 16 high-likelihood meningiomas, PiB PET/CT
  SUVmax (by body weight), range: 1.4-3.6
Meningiomas [5]; Example 3: one patient imaged two times, many months in between
  result on repeat PET/CT imaging: same positive results
Meningiomas [5]; Patient #1, mass along right tentorium cerebelli (FIG. 1)
  activity at the meningioma on PET and CT images: intense activity
Meningiomas [5]; Patient #4, mass along tuberculum sellae and planum sphenoidale (FIG. 2)
  activity at the meningioma on PET and CT images: intense activity
Meningiomas [5]; all 16 high-likelihood meningiomas
  result on PiB PET/CT imaging: clearly diagnostically positive
Meningiomas [5]; all 16 meningiomas identified by strict imaging criteria
  PiB activity relative to normal adjacent tissues: greater than normal adjacent tissues
Meningiomas [5]; [7]
  sensitivity of PiB PET/CT for meningiomas: 100%
  specificity of PiB PET/CT for meningiomas: 100%
Meningiomas [5]; two patients imaged with PiB PET/CT more than once
  SUVmax of meningioma on repeat imaging: stable or increasing

## Fluorodeoxyglucose [FDG]
non-meningioma tumors; melanoma and small cell lung cancer metastases (FIG. 4)
  FDG PET activity: increased
non-meningioma tumors; melanoma metastasis case, initial imaging
  result on FDG PET/CT: positive
non-meningioma tumors; pituitary macroadenoma (FIG. 5 Panel B)
  result on FDG PET/CT: positive
Meningiomas [6]; 2.6 cm thick meningioma of right tentorium (FIG. 3)
  FDG activity: only trace
Meningiomas [6]; meningioma in FIG. 4 panels G-I
  FDG PET activity: increased
Meningiomas [6]; seven of the 16 high-likelihood meningiomas
  FDG activity: moderate to high
